Structures are written as SMILES.

The nature of the data set: Human HepG2 cell viability assay in 384 well format. In kind it is toxicity, cell-based. Further details: dose 125 nL, time 70.5 hour; concentration not given beside the values. To be noted: HepG2 cells, read-out: Inhibition.
Take `Cc1ccc(C(=O)NCCCN2CCOCC2)c(Cl)c1`: the cytotoxicity at 70.5 h is -6.07%.

In the case of `c1ccc(CCCN2CC[C@H](c3nnc(-c4ccccc4)o3)C2)cc1`, the cytotoxicity at 70.5 h was -2.93%.

Regarding `COc1cccc(CN2CC[C@H](c3nnc(-c4ccco4)o3)C2)c1`, the cytotoxicity at 70.5 h amounted to 10.6%.

Consider `CCC(=O)N1CCC(n2cc(C(C)(C)O)nn2)CC1`, for which the cytotoxicity at 70.5 h was -6.93%.

For the molecule `COC(=O)[C@@H]1C[C@@H](NC(=O)CN2C(=O)N(C)Cc3ccccc32)CN1C`, the cytotoxicity at 70.5 h was -3.77%.

Turning to `CCn1ncnc1C1CC(=O)NCc2nc(N)sc21` (centres undefined), the cytotoxicity at 70.5 h came out at 27.6%.

In the case of `CCc1cnc(C)nc1NCCC(=O)N1CCC(C)CC1`, the cytotoxicity at 70.5 h was -0.743%.

For `CCCN1C[C@H]2CC[C@@H]1CN(Cc1cccc(-n3cccn3)c1)C2`, the cytotoxicity at 70.5 h is -0.983%.

For the molecule `COc1ccccc1N1CCC(N2CCOC(C(F)(F)F)C2)CC1` (centres undefined), the cytotoxicity at 70.5 h is -3.26%.

For `O=C(C1CCOCC1)N1CCC(OCc2cccnc2)CC1`, the cytotoxicity at 70.5 h is -12%.

Consider `NC1CCCc2c1cnn2-c1cc(F)cc(F)c1` (centres undefined), for which the cytotoxicity at 70.5 h was -4.65%.

`O=C1CC2(CCN(CC3CC3)CC2)CN1Cc1cc(F)cc(F)c1`: the cytotoxicity at 70.5 h was -2.81%.

In the case of `CCOc1ccnc(NCCc2nc(C)cc(=O)[nH]2)n1`, the cytotoxicity at 70.5 h was -2.38%.

With `O=C(c1cnc(Cc2c(Cl)cccc2Cl)nc1O)N1CCNCC1`, the cytotoxicity at 70.5 h was determined as 8.34%.

Regarding `COCCN(Cc1ccccn1)C(=O)C1CCCCCN1C` (centres undefined), the cytotoxicity at 70.5 h is -9.93%.

`Cc1cc(C)c2nc(CN(C)C(C)c3ccncn3)cc(O)c2c1` (centres undefined): the cytotoxicity at 70.5 h is -4.38%.

Regarding `CCN1CC2(CCC1=O)CCN(CCOc1ccc(F)cc1)CC2`, the cytotoxicity at 70.5 h was -13%.

Turning to `Cc1ccc(C#N)c(N2CCC3(CCC(=O)N(CC(N)=O)C3)CC2)n1`, the cytotoxicity at 70.5 h is -9.24%.

As to `O=C(O)C1(Cc2ccccc2Cl)CCN(c2ncnc3[nH]ccc23)CC1`, the cytotoxicity at 70.5 h came to 10.8%.

As for `CSc1ncc(C(=O)N2C[C@H]3CC[C@@H]2CN(S(=O)(=O)N(C)C)C3)cn1`, the cytotoxicity at 70.5 h is -1.22%.

As to `CC(C)(N)c1cn(C2CCN(C3CCSCC3)CC2)nn1`, the cytotoxicity at 70.5 h is -6.81%.

As for `COCc1cc(N2CCN(Cc3ccncc3)CC2)n2nccc2n1`, the cytotoxicity at 70.5 h was -1.74%.

For `COc1ccc2c(c1)CCN(Cc1cscn1)CC2`, the cytotoxicity at 70.5 h is -0.57%.

As for `CCC(Cn1ccnc1)n1cnc2scc(C)c2c1=O` (centres undefined), the cytotoxicity at 70.5 h was determined as 13.9%.

On to `Cc1cc(N2CCC3(CC2)C(C(=O)O)CC(=O)N3C)nc2ccccc12` (centres undefined), for which the cytotoxicity at 70.5 h is -6.81%.

Consider `Cn1c(CN2CCOCC2)nnc1C1CCCN(CC(N)=O)C1` (centres undefined), for which the cytotoxicity at 70.5 h amounted to 3.41%.

Regarding `COCC(O)CNC(=O)c1coc(COc2ccc3sc(C)nc3c2)n1` (centres undefined), the cytotoxicity at 70.5 h was -9.49%.

For the molecule `CCN(CC)S(=O)(=O)N1CCCC(c2cccc(C(=O)O)c2)C1` (centres undefined), the cytotoxicity at 70.5 h was -6.99%.

As to `CCOc1ccc(-c2ccnc(CC)n2)cc1C(=O)O`, the cytotoxicity at 70.5 h is -7.1%.

For the molecule `O=C(Cc1ccccn1)N1C[C@@H]2CC[C@H](C1)N(Cc1ccccc1)C2=O`, the cytotoxicity at 70.5 h is 6.93%.

Take `CCNC(=O)c1ccnc(NCC2COc3cc(OC)ccc3C2)c1` (centres undefined): the cytotoxicity at 70.5 h is -3.26%.

As for `CC(C)CN1CCC(c2nc3c([nH]2)CC(C)(C)CNC3=O)C1` (centres undefined), the cytotoxicity at 70.5 h is -9.67%.

In the case of `COc1ccc(C(=O)N2C[C@@H](CN3CCOCC3)[C@@H](CO)C2)c(C)c1`, the cytotoxicity at 70.5 h was -7.76%.

`Cc1ccc(CN2CCC(c3nnc(CN4CCCCC4)n3C)CC2)o1`: the cytotoxicity at 70.5 h is -5.72%.

Take `COc1ccccc1OCc1cc(C(=O)N2C[C@H](O)[C@@H](N(C)C)C2)n[nH]1`: the cytotoxicity at 70.5 h is -4.57%.

Take `O=C(NC(CO)CO)c1coc(COc2cccc(F)c2)n1`: the cytotoxicity at 70.5 h was -13%.

For the molecule `COCCN1CCN(Cc2ccc(F)c(C)c2)[C@H]2CS(=O)(=O)C[C@H]21`, the cytotoxicity at 70.5 h amounted to 17.8%.

As to `O=C(Cc1cccc(Cl)c1)N[C@@H]1CCNC[C@H]1O`, the cytotoxicity at 70.5 h was -3.16%.

As for `Cc1ccccc1CSc1nc(N)cc(N2CCOC(C(N)=O)C2)n1` (centres undefined), the cytotoxicity at 70.5 h came out at 1.56%.

Consider `COCCCn1ccnc1-c1cnc(OC)nc1`, for which the cytotoxicity at 70.5 h is -9.97%.

Turning to `COc1ccc(C(=O)C2CCCN(CCCn3cccn3)C2)c(OC)c1` (centres undefined), the cytotoxicity at 70.5 h stood at 20.9%.

Consider `CCN1CC(C(=O)N2CCC(Oc3ccccc3C)CC2)CC1=O` (centres undefined), for which the cytotoxicity at 70.5 h was -7.02%.

For `CCNC(=O)[C@@H]1C[C@H](NC(=O)c2ccccc2C#N)CN1CCCSC`, the cytotoxicity at 70.5 h was -2.96%.

Regarding `COCCC1(CO)CCCN(Cc2ccc(F)c(C)c2)C1` (centres undefined), the cytotoxicity at 70.5 h is -6.14%.

Consider `CCn1c(Cn2cncn2)nnc1C1CCN(C(=O)CCSC)CC1`, for which the cytotoxicity at 70.5 h is -4.61%.

As for `Cc1cc(C)c2nc(CN3CC[C@@H](O)C3)cc(O)c2c1`, the cytotoxicity at 70.5 h was -4.35%.

As to `N#Cc1ccccc1CN1C[C@@H]2CC[C@H](C1)N(Cc1cscn1)C2=O`, the cytotoxicity at 70.5 h is -11.1%.

Consider `Cc1cccnc1CN1CCC(c2nnc(Cn3cccn3)n2C)CC1`, for which the cytotoxicity at 70.5 h was -7.96%.

As to `CCn1c(CN(C)C)nnc1C1CCN(c2ccnc(C)c2)CC1`, the cytotoxicity at 70.5 h was -3.44%.

For `COc1ccc(C(=O)N2C[C@@H](C(=O)O)[C@H](c3ccccc3C)C2)c(O)c1`, the cytotoxicity at 70.5 h is -6.81%.

With `CSCCC1c2nc[nH]c2CCN1Cc1cc(Cl)ccc1O` (centres undefined), the cytotoxicity at 70.5 h was -5.87%.

Consider `Cc1cc(N2CCCN(C(=O)Cc3csc(C)n3)CC2)ccn1`, for which the cytotoxicity at 70.5 h was -12.4%.

`COc1ccc2c(c1)OCC(CNC(=O)c1ccc(=O)n(C)c1)C2` (centres undefined): the cytotoxicity at 70.5 h was -10%.

For the molecule `CC(C)Cc1noc(CN(C)C(=O)C2COc3ccccc3C2)n1` (centres undefined), the cytotoxicity at 70.5 h was -14.4%.

With `COc1cccc2c1OCC(CNC(=O)CSc1nc(N)n[nH]1)C2` (centres undefined), the cytotoxicity at 70.5 h is -12%.

With `CCn1nc(CNC(=O)C2CC(=O)N(C3CCCC3)C2)c2ccccc21` (centres undefined), the cytotoxicity at 70.5 h amounted to 13.8%.

With `OCC1CCCCN1c1ccc(-c2nc(-c3ccccc3F)no2)cn1` (centres undefined), the cytotoxicity at 70.5 h is -24.7%.

For the molecule `Cc1cncc(C(=O)N2CCC(Cn3cc(-c4ccsc4)nn3)CC2)c1`, the cytotoxicity at 70.5 h was -16.9%.

`COCCN(C)C(=O)Cn1cccc(OC)c1=O`: the cytotoxicity at 70.5 h is -9.38%.

Consider `Cn1cc(CN2CC[C@@H]3[C@@H](CCC(=O)N3CCC3=CCCCC3)C2)cn1`, for which the cytotoxicity at 70.5 h is -4.77%.

Turning to `COCc1cn([C@@H]2c3ccccc3C3(CCNCC3)[C@H]2O)nn1`, the cytotoxicity at 70.5 h is -6.38%.

On to `O=C(O)[C@@H]1CN(C(=O)c2ccc3[nH]nnc3c2)C[C@H]1c1cccc(F)c1`, for which the cytotoxicity at 70.5 h was -8.9%.

Regarding `CCn1nc(CC(C)C)cc1C(=O)NCCn1cccc1`, the cytotoxicity at 70.5 h was -2.38%.

Turning to `CC(C)Oc1cc(N2C[C@@H](C)O[C@@H](C)C2)nc(N)n1`, the cytotoxicity at 70.5 h is -14.6%.

Turning to `CN(Cc1nccs1)c1nc(-c2ccccn2)nc2c1CCNCC2`, the cytotoxicity at 70.5 h was -4.75%.

Consider `CCn1cc(CN2CCCn3nc(CNC(=O)C4CCC4)cc3C2)cn1`, for which the cytotoxicity at 70.5 h was -9%.

On to `CCn1ccnc1CN1CCC(CCC(=O)Nc2ccccc2Cl)CC1`, for which the cytotoxicity at 70.5 h amounted to 11.7%.

Take `CCn1cc(CN2CCCn3nc(CCC(=O)NCCO)cc3C2)cn1`: the cytotoxicity at 70.5 h was -3.88%.

Turning to `CCS(=O)(=O)N1CCC(c2nnc(Cn3cccn3)n2C2CC2)CC1`, the cytotoxicity at 70.5 h was -0.619%.

For the origin of these results see ChEMBL document CHEMBL3507680, “University of Dundee, Gates Library screen for HepG2 cell viability”.
